Assay results: patent US12492188B2, “1H-benzo[D]imidazole derivatives as TLR9 inhibitors for the treatment of fibrosis” (BRISTOL-MYERS SQUIBB COMPANY, priority 2020, dated 2025)
Where two headings read alike, the source gives them in different places.

Legend:
Type in all cases: cell-based
human TLR9 = biological target: T1, human TLR9 (Homo sapiens, UniProt Q9NR96); test: TLR9 inhibition reporter assay (HEK-Blue cells, secreted embryonic alkaline phosphatase reporter)
T1 construct: host or cells: HEK-Blue cells (HEK293-derived reporter line)
T1 sequence (Q9NR96 26-1032): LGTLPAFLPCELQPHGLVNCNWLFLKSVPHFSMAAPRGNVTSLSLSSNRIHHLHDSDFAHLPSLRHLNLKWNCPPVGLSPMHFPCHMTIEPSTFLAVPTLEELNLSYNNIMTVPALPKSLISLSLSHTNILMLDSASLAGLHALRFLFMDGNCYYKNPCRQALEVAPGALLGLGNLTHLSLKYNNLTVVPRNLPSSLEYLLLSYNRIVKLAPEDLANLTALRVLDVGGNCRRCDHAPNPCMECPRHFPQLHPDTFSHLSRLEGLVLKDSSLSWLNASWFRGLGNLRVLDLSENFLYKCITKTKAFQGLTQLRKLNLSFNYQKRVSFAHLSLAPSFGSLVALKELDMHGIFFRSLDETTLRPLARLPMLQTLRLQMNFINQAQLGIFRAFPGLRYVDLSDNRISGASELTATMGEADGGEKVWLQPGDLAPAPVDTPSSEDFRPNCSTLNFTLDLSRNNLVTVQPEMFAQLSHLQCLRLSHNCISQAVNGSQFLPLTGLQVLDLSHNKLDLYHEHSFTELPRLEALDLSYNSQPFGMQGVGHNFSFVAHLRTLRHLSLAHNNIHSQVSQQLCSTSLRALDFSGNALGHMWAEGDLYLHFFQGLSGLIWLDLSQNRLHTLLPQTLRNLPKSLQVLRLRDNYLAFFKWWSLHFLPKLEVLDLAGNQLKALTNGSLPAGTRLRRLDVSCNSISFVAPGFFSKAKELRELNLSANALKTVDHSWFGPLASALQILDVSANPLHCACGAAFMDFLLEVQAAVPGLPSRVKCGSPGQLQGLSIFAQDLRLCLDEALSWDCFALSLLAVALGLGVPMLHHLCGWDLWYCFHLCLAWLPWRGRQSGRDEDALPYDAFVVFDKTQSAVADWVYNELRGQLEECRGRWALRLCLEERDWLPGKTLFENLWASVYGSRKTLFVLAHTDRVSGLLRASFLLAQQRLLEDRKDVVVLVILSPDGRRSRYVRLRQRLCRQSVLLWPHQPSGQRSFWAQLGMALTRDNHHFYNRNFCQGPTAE
Outline: (§1)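 HEK-Blue cells expressing human TLR7, TLR8 or TLR9 with an NF-κB/AP-1-driven SEAP reporter were pretreated with compound (0.05 nM–50 μM final) for 30 min at room temperature. Agonists were gardiquimod 7.5 μM for TLR7, R848 15.9 μM for TLR8 and ODN2006 5 nM for TLR9. SEAP was read after 22 h at 37 °C, and inhibition was calculated relative to agonist-plus-DMSO and known-inhibitor controls.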

human TLR7 = biological target: T2, human TLR7 (Homo sapiens, UniProt Q9NYK1); test: TLR7 inhibition reporter assay (HEK-Blue cells, secreted embryonic alkaline phosphatase reporter); details: HEK-Blue cells overexpressing human TLR7, stimulated with gardiquimod 7.5 μM; read-out: TLR 7 IC50
T2 construct: host or cells: HEK-Blue cells (HEK293-derived reporter line)
T2 sequence (Q9NYK1 27-1049): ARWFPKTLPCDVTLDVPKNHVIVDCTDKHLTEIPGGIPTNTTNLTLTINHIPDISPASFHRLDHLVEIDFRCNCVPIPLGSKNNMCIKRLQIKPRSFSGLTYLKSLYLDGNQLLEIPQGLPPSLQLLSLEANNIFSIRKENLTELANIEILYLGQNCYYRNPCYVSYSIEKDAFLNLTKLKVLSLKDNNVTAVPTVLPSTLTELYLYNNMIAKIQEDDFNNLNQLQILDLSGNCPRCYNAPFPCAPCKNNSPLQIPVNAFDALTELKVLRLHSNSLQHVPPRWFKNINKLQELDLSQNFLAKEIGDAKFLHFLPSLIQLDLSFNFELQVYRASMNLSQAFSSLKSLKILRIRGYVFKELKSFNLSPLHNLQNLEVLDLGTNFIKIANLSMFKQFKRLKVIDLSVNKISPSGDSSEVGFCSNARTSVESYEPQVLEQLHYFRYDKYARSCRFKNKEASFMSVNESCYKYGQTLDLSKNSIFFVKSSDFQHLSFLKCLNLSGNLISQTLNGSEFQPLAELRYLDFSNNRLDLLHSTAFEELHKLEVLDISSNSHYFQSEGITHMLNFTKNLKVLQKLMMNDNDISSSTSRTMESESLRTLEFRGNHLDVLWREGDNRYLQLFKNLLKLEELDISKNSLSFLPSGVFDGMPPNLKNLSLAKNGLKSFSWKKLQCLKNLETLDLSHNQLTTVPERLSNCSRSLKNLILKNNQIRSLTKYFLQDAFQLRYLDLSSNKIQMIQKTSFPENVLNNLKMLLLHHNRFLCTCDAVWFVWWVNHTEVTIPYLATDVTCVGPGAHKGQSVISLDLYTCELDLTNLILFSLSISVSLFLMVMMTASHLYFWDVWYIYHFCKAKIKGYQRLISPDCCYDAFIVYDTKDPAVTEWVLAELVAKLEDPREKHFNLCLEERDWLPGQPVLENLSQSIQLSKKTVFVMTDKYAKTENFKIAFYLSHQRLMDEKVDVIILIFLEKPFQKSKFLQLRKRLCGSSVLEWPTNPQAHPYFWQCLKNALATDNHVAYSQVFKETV
Outline: as §1

human TLR8 = biological target: T3, human TLR8 (Homo sapiens, UniProt Q9NR97); test: TLR8 inhibition reporter assay (HEK-Blue cells, secreted embryonic alkaline phosphatase reporter); details: HEK-Blue cells overexpressing human TLR8, stimulated with R848 15.9 μM; read-out: TLR 8 IC50
T3 construct: host or cells: HEK-Blue cells (HEK293-derived reporter line)
T3 sequence (Q9NR97 27-1041): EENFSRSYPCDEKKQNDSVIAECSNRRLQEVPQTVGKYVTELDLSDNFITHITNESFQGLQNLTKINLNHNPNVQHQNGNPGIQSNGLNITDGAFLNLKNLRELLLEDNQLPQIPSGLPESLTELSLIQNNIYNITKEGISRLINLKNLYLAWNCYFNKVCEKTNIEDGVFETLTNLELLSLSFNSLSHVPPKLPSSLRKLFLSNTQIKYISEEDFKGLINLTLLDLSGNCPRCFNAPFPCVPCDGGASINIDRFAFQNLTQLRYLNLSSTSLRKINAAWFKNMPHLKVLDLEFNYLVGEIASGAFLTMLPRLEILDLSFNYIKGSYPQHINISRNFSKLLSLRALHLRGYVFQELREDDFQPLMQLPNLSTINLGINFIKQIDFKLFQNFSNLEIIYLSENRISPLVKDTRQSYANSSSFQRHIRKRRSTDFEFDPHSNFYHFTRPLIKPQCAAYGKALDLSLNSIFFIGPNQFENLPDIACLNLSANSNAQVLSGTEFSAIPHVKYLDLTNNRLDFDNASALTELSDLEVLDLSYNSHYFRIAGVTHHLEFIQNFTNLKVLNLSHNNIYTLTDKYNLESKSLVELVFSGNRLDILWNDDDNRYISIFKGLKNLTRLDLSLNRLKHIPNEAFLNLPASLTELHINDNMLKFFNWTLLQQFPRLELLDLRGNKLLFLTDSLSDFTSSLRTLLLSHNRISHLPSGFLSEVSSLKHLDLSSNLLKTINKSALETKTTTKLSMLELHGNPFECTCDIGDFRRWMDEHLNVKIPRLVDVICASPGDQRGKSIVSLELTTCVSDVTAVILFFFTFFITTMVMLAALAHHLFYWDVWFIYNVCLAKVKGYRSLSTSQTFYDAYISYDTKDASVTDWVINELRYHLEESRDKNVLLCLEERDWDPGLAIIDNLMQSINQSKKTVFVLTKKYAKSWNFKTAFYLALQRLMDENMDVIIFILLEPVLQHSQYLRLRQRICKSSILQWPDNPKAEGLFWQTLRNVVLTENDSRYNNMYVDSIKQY
Outline: as §1

[1] = HEK-Blue cells overexpressing human TLR9, stimulated with ODN2006 5 nM, read-out: TLR 9 IC50

Row | SMILES | IC50 (human TLR9) | IC50 (human TLR9; [1]) | IC50 (human TLR7) | IC50 (human TLR8)
1 | CC(C)CN1CCC(N2CCC(c3ccc4nc(-c5ccc(S(C)(=O)=O)cc5)[nH]c4c3F)CC2)CC1 [Example 177, 7-fluoro-6-(1′-isobutyl-[1,4′-bipiperidin]-4-yl)-2-(4-(methylsulfonyl)phenyl)-1H-benzo[d]imidazole] | 120 nM | 120 nM | > 50000 nM | > 50000 nM
2 | CS(=O)(=O)c1ccc(-c2nc3ccc(C4CCN(C5CCN(C6CC6)CC5)CC4)c(F)c3[nH]2)cc1 [Example 178, 6-(1′-cyclopropyl-[1,4′-bipiperidin]-4-yl)-7-fluoro-2-(4-(methylsulfonyl)phenyl)-1H-benzo[d]imidazole] | 240 nM | 238 nM | > 50000 nM | > 50000 nM
3 | CS(=O)(=O)c1ccc(-c2nc3ccc(C4CCN(C5CCN(CC6CC6)CC5)CC4)c(F)c3[nH]2)cc1 [Example 179, 6-(1′-(cyclopropylmethyl)-[1,4′-bipiperidin]-4-yl)-7-fluoro-2-(4-(methylsulfonyl)phenyl)-1H-benzo[d]imidazole] | 180 nM | 184 nM | > 50000 nM | > 50000 nM
4 | CS(=O)(=O)c1ccc(-c2nc3ccc(C4CCN(C5CCN(C6CCC6)CC5)CC4)c(F)c3[nH]2)cc1 [Example 180, 6-(1′-cyclobutyl-[1,4′-bipiperidin]-4-yl)-7-fluoro-2-(4-(methylsulfonyl)phenyl)-1H-benzo[d]imidazole] | 25 nM |  | > 50000 nM | > 50000 nM
5 | CS(=O)(=O)c1ccc(-c2nc3ccc(C4CCN(C5CCN(C6COC6)CC5)CC4)c(F)c3[nH]2)cc1 [Example 181, 7-fluoro-2-(4-(methylsulfonyl)phenyl)-6-(1′-(oxetan-3-yl)-[1,4′-bipiperidin]-4-yl)-1H-benzo[d]imidazole] | 640 nM | 641 nM | > 50000 nM | > 50000 nM
6 | CS(=O)(=O)c1ccc(-c2nc3ccc(C4CCN(C5CCN(C6CCOCC6)CC5)CC4)c(F)c3[nH]2)cc1 [Example 182, 7-fluoro-2-(4-(methylsulfonyl)phenyl)-6-(1′-(tetrahydro-2H-pyran-4-yl)-[1,4′-bipiperidin]-4-yl)-1H-benzo[d]imidazole] | 320 nM | 316 nM | > 50000 nM | > 50000 nM
7 | CS(=O)(=O)c1ccc(-c2nc3ccc(C4CCN(C5CCN(CC6COC6)CC5)CC4)c(F)c3[nH]2)cc1 [Example 183, 7-fluoro-2-(4-(methylsulfonyl)phenyl)-6-(1′-(oxetan-3-ylmethyl)-[1,4′-bipiperidin]-4-yl)-1H-benzo[d]imidazole] | 110 nM | 110 nM | > 50000 nM | > 50000 nM
8 | CC(C)CN1CCC(N2CCC(c3ccc4c(nc(-c5ccc(S(C)(=O)=O)cc5)n4C)c3F)CC2)CC1 [Example 184, 4-fluoro-5-(1′-isobutyl-[1,4′-bipiperidin]-4-yl)-1-methyl-2-(4-(methylsulfonyl)phenyl)-1H-benzo[d]imidazole] | 850 nM | 850 nM | > 50000 nM | > 50000 nM
9 | Cn1c(-c2ccc(S(C)(=O)=O)cc2)nc2c(F)c(C3CCN(C4CCN(C5CC5)CC4)CC3)ccc21 [Example 185, 5-(1′-cyclopropyl-[1,4′-bipiperidin]-4-yl)-4-fluoro-1-methyl-2-(4-(methylsulfonyl)phenyl)-1H-benzo[d]imidazole] | 700 nM | 697 nM | > 50000 nM | > 50000 nM
10 | Cn1c(-c2ccc(S(C)(=O)=O)cc2)nc2c(F)c(C3CCN(C4CCN(C5COC5)CC4)CC3)ccc21 [Example 186, 4-fluoro-1-methyl-2-(4-(methylsulfonyl)phenyl)-5-(1′-(oxetan-3-yl)-[1,4′-bipiperidin]-4-yl)-1H-benzo[d]imidazole] | 7300 nM | 7300 nM | > 50000 nM | > 50000 nM
